In brackets after ≈: the same amount, converted by molar mass. Where two headings read alike, the source gives them in different places.
What was measured:
[1] = system: Firmicutes, Actinobacteria and Bacteroidetes; test: Agar-dilution antibacterial assay, human gut anaerobic commensals (panel summary); type: cell-based; settings: for antibacterial activity against firmicutes, actinobacteria and bacteroidetes (normal GI flora): summary in words
Protocol: (§1) Representatives of human gut anaerobic commensals belonging to the 3 major phyla, Firmicutes, Actinobacteria and Bacteroidetes were tested in standard agar-dilution antibacterial assays run under anaerobic conditions. Firmicutes and Actinobacteria are part of the healthy human gut and their levels are compromised in Crohn's patients.

[2] = system: ATCC 23272 Lactobacillus reuteri; test: Agar-dilution antibacterial assay under anaerobic conditions; type: cell-based; settings: Limosilactobacillus reuteri, ATCC23272, Firmicutes
Protocol: as §1

[3] = system: MMX 3478 Bacteroides fragilis; test: as above; type: cell-based; settings: Bacteroidetes
Protocol: as §1

[4] = system: ATCC 25986 Collinsella aerofaciens; test: as above; type: cell-based; settings: ATCC25986, Actinobacteria
Protocol: as §1

[5] = system: MMX 9711 Bacteroides salyersiae; test: as above; type: cell-based; settings: Bacteroidetes
Protocol: as §1

[6] = system: ATCC 15702 Bifidobacterium infantis; test: as above; type: cell-based; settings: ATCC15702, Actinobacteria
Protocol: as §1

[7] = system: MMX 6660 Streptococcus intermedius; test: as above; type: cell-based; settings: Firmicutes
Protocol: as §1

[8] = system: MMX 1722 Lactobacillus casei; test: as above; type: cell-based; settings: Lacticaseibacillus casei, Firmicutes
Protocol: as §1

[9] = system: MMX 10069 Bifidobacterium adolescentis; test: as above; type: cell-based; settings: Actinobacteria
Protocol: as §1

[10] = system: ATCC 12290 Bacteroides thetaiotaomicron; test: microbe, parasite or virus in culture; type: cell-based
Protocol: as §1

[11] = system: MMX 9797 Clostridium innocuum; test: Agar-dilution antibacterial assay under anaerobic conditions; type: cell-based; settings: Firmicutes
Protocol: as §1

[12] = system: AIEC strain (Phylotype D); test: GI AIEC decolonization murine model; type: in vivo, C57BL/6J mice; settings: 30 mg/kg by oral gavage, FIG. 1
Protocol: A GI AIEC decolonization murine model studies were performed using a previously published murine model as the basis and run in accordance with animal ethical guidelines at an external contract research organization. Healthy C57BL/6J mice were first administered streptomycin by oral gavage. An AIEC strain (Phylotype D) was then administered at approximately 1-5×10^6 cfu per mouse by oral gavage and fecal pellets were enumerated for AIEC burden. Upon stable colonization (usually after 48 h post-AIEC administration), mice were sorted into three groups of 4 animals each. […] The third group was the control and was given an equivalent volume of sterile saline by oral gavage. Fecal pellets were recovered at various times as indicated on the X-axis of FIG. 1 and AIEC burden quantified by dilution and plating. Two successive fecal pellets were recovered from each mouse per group to sufficiently power the data.

[13] = system: gut microbiome; test: Post-treatment measurement of microbiome health (16S rRNA gene sequencing of fecal pellets); type: in vivo, mice; settings: 30 mg/kg oral gavage once a day for 3 days, p<0.05
Protocol: Mice were dosed once a day for 3 consecutive days post AIEC stable GI colonization. Fecal pellets from four mice (1-2 per mouse) were pooled and subjected to bacterial DNA enrichment and analyzed using the Illumina MiSeq 2. Bacterial abundance and diversity was quantified using 16S rRNA gene sequencing data, analyzed and compared with naïve mice.

[14] = system: Crohn's AIEC Isolates; settings: AIEC Crohn's clinical isolates
[15] = system: Crohn's AIEC Isolates; test: microbe, parasite or virus in culture; settings: Escherichia coli
[16] = ATCC12290, Bacteroidetes, anaerobic agar dilution, read-out: MIC

Compound | antibacterial activity against firmicutes, actinobacteria and bacteroidetes (normal GI flora) [1] | MIC [2] [µg/mL] | MIC [3] [µg/mL] | MIC [4] [µg/mL] | MIC [5] [µg/mL] | MIC [6] [µg/mL] | MIC [7] [µg/mL] | MIC [8] [µg/mL] | MIC [9] [µg/mL] | MIC [11] [µg/mL] | MIC [10, 16] [µg/mL] | further results
O=C(O)c1cn(C2CC2)c2cc(N3CCNCC3)c(F)cc2c1=O [Ciprofloxacin] | broad potent antibacterial activities | 32 (≈ 96.6 µM) | 16 (≈ 48.3 µM) | 0.5 (≈ 1.51 µM) | 16 (≈ 48.3 µM) | 4 (≈ 12.1 µM) | 1 (≈ 3.02 µM) | 1 (≈ 3.02 µM) | 32 (≈ 96.6 µM) |  |  | 
Cc1ncc([N+](=O)[O-])n1CCO [Metronidazole] | broad potent antibacterial activities | > 64 | 8 (≈ 46.7 µM) | 1 (≈ 5.84 µM) | 2 (≈ 11.7 µM) | 8 (≈ 46.7 µM) | > 64 | > 64 | 8 (≈ 46.7 µM) | 1 (≈ 5.84 µM) |  | MIC ([10]; ATCC12290): 0.25 µg/mL (≈ 1.46 µM)
CO[C@H]1/C=C/O[C@@]2(C)Oc3c(C)c(O)c4c(O)c(c5c(nc6cc(C)ccn65)c4c3C2=O)NC(=O)/C(C)=C\C=C\[C@H](C)[C@H](O)[C@@H](C)[C@@H](O)[C@@H](C)[C@H](OC(C)=O)[C@@H]1C [Rifaximin] | broad potent antibacterial activities | 0.06 (≈ 0.0763 µM) | 0.25 (≈ 0.318 µM) | ≤ 0.03 | 0.5 (≈ 0.636 µM) | 0.125 (≈ 0.159 µM) | 0.5 (≈ 0.636 µM) | 0.25 (≈ 0.318 µM) | 0.5 (≈ 0.636 µM) | > 32 | ≤ 0.03 | 
CO[C@@]1(NC(=O)C(C(=O)O)c2ccsc2)C(=O)N2[C@@H](C(=O)O)C(C)(C)S[C@@H]21 (stereo partly drawn) [Temocillin, temocillin] | little or no effect on the normal GI flora | > 256 | 256 (≈ 618 µM) | > 256 | > 256 | > 256 | > 256 | > 256 | > 256 | > 256 | > 256 | AIEC burden in feces (log10 bacterial burden) [12]: effective at lowering AIEC burden in the murine GI tract and performed as well as the current standard-of-care antibiotic, ciprofloxacin; AIEC burden in feces (log10 bacterial burden) ([12]; listed as temocillin): effective at lowering the AIEC burden in the murine GI tract; AIEC burden after cessation of treatment (rebound) ([12]; post-treatment): effective at maintaining the AIEC burden low for days after cessation of treatment; time AIEC bacterial growth remained low after treatment ([12]; post-treatment): at least 7 days; richness (number of OTUs) ([13]; FIG. 2A): comparable to the untreated (naive) mice and were higher than ciprofloxacin; diversity (Shannon index) ([13]; FIG. 2B): comparable to the untreated (naive) mice and were higher than ciprofloxacin; antibacterial activity vs. ciprofloxacin resistant isolates [14]: maintains antibacterial activity vs. ciprofloxacin resistant isolates; MIC ([1]; certain firmicutes, actinobacteria and bacteroidetes): > 256 µg/mL; MIC50 [15]: 4 to 8 µg/mL (≈ 9.65 to 19.3 µM); MIC ([15]; Crohn's AIEC isolate #14): 16 µg/mL (≈ 38.6 µM); MIC ([15]; Crohn's AIEC isolate #32): 4 µg/mL (≈ 9.65 µM); MIC ([15]; Crohn's AIEC isolate #35): 16 µg/mL (≈ 38.6 µM); MIC ([15]; Crohn's AIEC isolate #40): 8 µg/mL (≈ 19.3 µM); MIC ([15]; Crohn's AIEC isolate #49): 4 µg/mL (≈ 9.65 µM); MIC ([15]; Crohn's AIEC isolate #51): 8 µg/mL (≈ 19.3 µM)
